Data published in US20060084688A1, “Aromatic sulfone hydroxamic acid metalloprotease inhibitor” (priority 1997, published 2006).
Structures can show the parent of a compound that is named as a salt. Where two headings read alike, the source gives them in different places.

Tests used:
[1] = for t1/2: Rat Intraveneous
recombinant human MMP-13 = recombinant human MMP-13 (Homo sapiens, UniProt P45452); assay: biochemical; conditions: Inhibition Table B
recombinant human MMP-1 = molecular target: T1, recombinant human MMP-1 (Homo sapiens, UniProt P03956); assay: biochemical; conditions: Inhibition Table B
T1 construct: made in house; host or cells: transfected HT-1080 cells
T1 sequence (P03956 100-469): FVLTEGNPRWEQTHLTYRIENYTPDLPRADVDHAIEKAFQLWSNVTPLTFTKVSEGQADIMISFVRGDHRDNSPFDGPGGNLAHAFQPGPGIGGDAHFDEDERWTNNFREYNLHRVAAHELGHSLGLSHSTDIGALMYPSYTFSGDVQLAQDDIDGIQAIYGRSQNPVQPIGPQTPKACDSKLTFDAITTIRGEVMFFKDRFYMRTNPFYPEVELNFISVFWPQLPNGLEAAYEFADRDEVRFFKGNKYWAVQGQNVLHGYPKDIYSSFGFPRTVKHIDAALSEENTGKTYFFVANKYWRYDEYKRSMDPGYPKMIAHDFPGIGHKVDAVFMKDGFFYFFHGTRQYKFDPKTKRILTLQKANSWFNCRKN

recombinant human MMP-2 = molecular target: T2, recombinant human MMP-2 (Homo sapiens, UniProt P08253); assay: biochemical; conditions: Inhibition Table B
T2 sequence (P08253 110-660): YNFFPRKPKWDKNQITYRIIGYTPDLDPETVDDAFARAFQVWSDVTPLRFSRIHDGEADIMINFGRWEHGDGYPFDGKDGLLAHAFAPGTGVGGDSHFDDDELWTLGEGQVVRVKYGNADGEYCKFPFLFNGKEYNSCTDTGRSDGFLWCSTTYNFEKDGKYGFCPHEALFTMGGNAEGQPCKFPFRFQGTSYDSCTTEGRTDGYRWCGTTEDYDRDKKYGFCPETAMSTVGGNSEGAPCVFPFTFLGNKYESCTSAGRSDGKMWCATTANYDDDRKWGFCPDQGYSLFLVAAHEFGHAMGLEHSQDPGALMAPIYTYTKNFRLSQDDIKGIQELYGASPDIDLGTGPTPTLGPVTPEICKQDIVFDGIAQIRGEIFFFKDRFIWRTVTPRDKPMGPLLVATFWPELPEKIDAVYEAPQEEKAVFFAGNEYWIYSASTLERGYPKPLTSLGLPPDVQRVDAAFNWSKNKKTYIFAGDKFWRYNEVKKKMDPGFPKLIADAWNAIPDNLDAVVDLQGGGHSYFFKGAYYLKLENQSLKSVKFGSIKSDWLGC

CC(=O)N1CCC(C(=O)NO)(S(=O)(=O)c2ccc(Oc3ccccc3)cc2)CC1 [Example 12, 1-acetyl-N-hydroxy-4-[(4-phenoxyphenyl)sulfonyl]-4-piperidinecarboxamide]
Blood Level @ 3 min ([1]; rat, in vivo, 20 mg/kg): 73540 ng/mL
BA ([1]; rat, in vivo, po, 20 mg/kg): 11.1%
Blood Level @ 6 hr ([1]; rat, in vivo, po, 20 mg/kg): 121 ng/mL

Cl.O=C(NO)C1(S(=O)(=O)c2ccc(Oc3ccccc3)cc2)CCN(C2CC2)CC1 [Example 17, 1-cyclopropyl-N-hydroxy-4-[(4-phenoxyphenyl)sulfonyl]-4-piperidinecarboxamide]
Blood Level @ 3 min ([1]; rat, in vivo, 20 mg/kg): 63440 ng/mL
BA ([1]; rat, in vivo, po, 20 mg/kg): 35.9%
Blood Level @ 6 hr ([1]; rat, in vivo, po, 20 mg/kg): 135 ng/mL

Cl.O=C(NO)C1(S(=O)(=O)c2ccc(Sc3ccccc3)cc2)CCN(C2CC2)CC1 [Example 32, 1-cyclopropyl-N-hydroxy-4-[[4-(phenylthio)phenyl]sulfonyl]-4-piperidine carboxamide, monohydrochloride]
t1/2 ([1]; 20 mpk): 1.03 h

CN1CCC(C(=O)NO)(S(=O)(=O)c2ccc(Sc3ccccc3)cc2)CC1.Cl [Example 33, N-hydroxy-1-methyl-4-[[4-(phenylthio)phenyl]sulfonyl]-4-piperidinecarboxamide, monohydrochloride]
t1/2 ([1]; 20 mpk): 1.91 h

CC(=O)N1CCC(C(=O)NO)(S(=O)(=O)c2ccc(Sc3ccccc3)cc2)CC1.Cl [Example 36, 1-acetyl-N-hydroxy-4-[[4-(phenylthio)phenyl]sulfonyl]-4-piperidinecarboxamide, monohydrochloride]
t1/2 ([1]; 20 mpk): 0.65 h

C#CCN1CCC(C(=O)NO)(S(=O)(=O)c2ccc(Oc3ccc(C)c(C)c3)cc2)CC1.Cl [Example 43, 4-[[4-(3,4-Dimethylphenoxyl)phenyl]sulfonyl]-N-hydroxy-1-(2-propynyl)-4-piperidinecarboxamide, monhydrochloride]
t1/2 ([1]; 20 mpk): 0.82 h

Cl.O=C(NO)C1(S(=O)(=O)c2ccc(Oc3ccc(-n4cncn4)cc3)cc2)CCS(=O)(=O)CC1 [Example 53, Tetrahydro-N-hydroxy-4-[[4-[4-(1H-1,2,4-triazol-1-yl)phenoxy]-phenyl]-sulfonyl]-2H-thiopyran-4-carboxamide 1,1-dioxide, monohydrochloride]
t1/2 ([1]; 20 mpk): 0.97 h
Blood Level @ 6 hr ([1]; Rat Oral, 20 mpk, 6 hr): BLD

C#CCN1CCC(C(=O)NO)(S(=O)(=O)c2ccc(Oc3ccc(Cl)c(C)c3)cc2)CC1.Cl [Example 81, 4-[(4-(4-chloro-3-methylphenoxy)phenyl]sulfonyl]-N-hydroxy-1-(2-propynyl)-4-piperidinecarboxamide, monohydrochloride]
t1/2 ([1]; 20 mpk): 0.76 h

Cl.O=C(NO)C1(S(=O)(=O)c2ccc(Oc3ccc(Cl)cc3)cc2)CCNCC1 [Example 93, 4-[[4-(4-chlorophenoxy)-phenyl]sulfonyl]-N-hydroxy-4-piperidinecarboxamide, monohydrochloride]
t1/2 ([1]; 20 mpk): 1.81 h

O=C(NO)C1(S(=O)(=O)c2ccc(Oc3ccccc3)cc2)CCOCC1 [Example 94, Tetrahydro-N-hydroxy-4-[(4-phenoxyphenyl)sulfonyl]-2H-pyran-4-carboxamide]
t1/2 ([1]; 20 mpk): 1.71 h

Cl.O=C(NO)C1(S(=O)(=O)c2ccc(Oc3ccc(-n4ccnc4)cc3)cc2)CCOCC1 [Example 99, tetrahydro-N-hydroxy-4-[[4-[4-(1H-imidazol-1-yl)phenoxy]phenyl]-sulfonyl]-2H-pyran-4-carboxamide, monohydrochloride]
t1/2 ([1]; 20 mpk): 0.68 h

O=C(NO)C1(S(=O)(=O)c2ccc(Oc3ccc(Cl)cc3)cc2)CCOCC1 [Example 100, 4-[[4-(4-chlorophenoxy)-phenyl]sulfonyl]-tetrahydro-N-hydroxy-2H-pyran-4-carboxamide]
t1/2 ([1]; 20 mpk): 1.50 h

O=C(NO)C1(S(=O)(=O)c2ccc(Sc3ccc(F)cc3)cc2)CCOCC1 [Example 103, 4-[[4-[(4-fluorophenyl)-thio]phenyl]sulfonyl]tetrahydro-N-hydroxy-2H-pyran-4-carboxamide]
t1/2 ([1]; 20 mpk): 1.10 h

Cl.O=C(NO)C1(S(=O)(=O)c2ccc(Sc3ccncc3)cc2)CCOCC1 [Example 104, Tetrahydro-N-hydroxy-4-[[4-(4-pyridinylthio)phenyl]sulfonyl]-2H-pyran-4-carboxamide, monohydrochloride]
t1/2 ([1]; 20 mpk): 0.66 h

O=C(NO)C1(S(=O)(=O)c2ccc(Oc3ccccc3)cc2)CCSCC1 [Example 109]
t1/2 ([1]; 20 mpk): 1.12 h

O=C(NO)C1(S(=O)(=O)c2ccc(Oc3ccccc3)cc2)CC[S+]([O-])CC1 (centres unmarked) [Example 111]
t1/2 ([1]; 20 mpk): 0.65 h

Nc1ccc(Sc2ccc(S(=O)(=O)C3(C(=O)NO)CCSCC3)cc2)cc1 [Example 115, tetrahydro-N-hydroxy-4-[[4-[4-aminophenyl)thiophenoxy]phenyl]sulfonyl 2H-thionyran-4-carboxamide]
t1/2 ([1]; 20 mpk): 1.36 h

O=C(O)CNc1ccc(Oc2ccc(S(=O)(=O)C3(C(=O)NO)CCSCC3)cc2)cc1 [Example 117, tetrahydro-N-hydroxy-4-[[4-[4-hydroxyphenylglycine)]phenyl]sulfonyl 2H-thionyran-4-carboxamide]
t1/2 ([1]; 20 mpk): 0.78 h

NCC(=O)Nc1ccc(Sc2ccc(S(=O)(=O)C3(C(=O)NO)CCSCC3)cc2)cc1 [Example 118]
t1/2 ([1]; 20 mpk): 1.85 h

CC(C)c1ccc(Oc2ccc(S(=O)(=O)C3(C(=O)NO)CCOCC3)cc2)cc1 [Example 125, tetrahydro-N-hydroxy-4-[[4-[4-(1-methylethyl)phenoxy]phenyl]-sulfonyl]-2H-pyran-4-carboxamide]
t1/2 ([1]; 20 mpk): 0.73 h

Cc1cc(-c2ccc(S(=O)(=O)C3(C(=O)NO)CCOCC3)cc2)ccc1F [Example 222]
IC50 (recombinant human MMP-13): < 1 nM
IC50 (recombinant human MMP-1): 100 nM
IC50 (recombinant human MMP-2): < 1 nM

Cc1ccc(-c2ccc(S(=O)(=O)C3(C(=O)NO)CCOCC3)cc2)cc1C [Example 223]
IC50 (recombinant human MMP-13): < 1 nM
IC50 (recombinant human MMP-1): 1100 nM
IC50 (recombinant human MMP-2): < 1 nM

O=C(NO)C1(S(=O)(=O)c2ccc(-c3cc4ccccc4o3)cc2)CCOCC1 [Example 229]
IC50 (recombinant human MMP-13): < 1 nM
IC50 (recombinant human MMP-1): > 10000 nM
IC50 (recombinant human MMP-2): < 1 nM

O=C(NO)C1(S(=O)(=O)c2ccc(Oc3ccc(SC(F)(F)F)cc3)cc2)CCOCC1 [Example 382, Tetrahydro-N-hydroxy-4-[[4-[4-[(trifluoromethyl)thio]phenoxy]phenyl]-sulfonyl]-2H-pyran-4-carboxamide]
t1/2 ([1]; 20 mpk): 1.71 h

O=C(NO)C1(S(=O)(=O)c2ccc(Oc3ccc(C(F)(F)F)cc3)cc2)CCN(CCN2CCOCC2)CC1 [Example 388, N-hydroxy-1-[2-(4-morpholinyl)-ethyl]-4-[(4-(4-(trifluoromethyl)phenoxy]-phenyl]sulfonyl]-4-piperidinecarboxamide, dihydrochloride]
t1/2 ([1]; 20 mpk): 0.94 h

O=C(NO)C1(S(=O)(=O)c2ccc(Oc3ccc(C(F)(F)F)cc3)cc2)CCN(Cc2cccnc2)CC1 [Example 390, N-hydroxy-1-(3-pyridinylmethyl)-4-[[4-(4-trifluoromethyl)phenoxy]phenyl]-sulfonyl]-4-piperidinecarboxamide, dihydrochloride]
t1/2 ([1]; 20 mpk): 1.50 h

O=C(NO)C1(S(=O)(=O)c2ccc(Oc3ccc(C(F)(F)F)cc3)cc2)CCN(Cc2ccccn2)CC1 [Example 391, N-hydroxy-1-(2-pyridinylmethyl)-4-[[4-[4-(trifluoromethyl)phenoxy]phenyl]-sulfonyl]-4-piperidinecarboxamide, dihydrochloride]
t1/2 ([1]; 20 mpk): 1.45 h
